The values that follow come from US20250205324A1, “ANTIGENIC PEPTIDES FOR PREVENTION AND TREATMENT OF CANCER” (ENTEROME S.A., priority 2022, published 2025).

Entries after “also recorded” stand apart in the source; their conditions may differ.

Experiment [1] concerns HHD DR1 HLA-A2 transgenic mice. Description: ELISPOT-IFNγ assay on splenocytes of vaccinated HLA-A2 transgenic mice. Particulars: for immunogenicity: T cell response in ELISPOT-IFNγ: 30 nmol peptide + UCP2 helper in Montanide ISA 51 VG s.c., prime d0, boost d14, spleen d21, restimulation 10 μM; for cross-reactivity of induced T cells with the corresponding human peptide in ELISPOT-IFNγ: prime d0, boost d14, spleen d21, challenge with human peptide 10 μM. It counts as in vivo, mouse. The protocol: Briefly, HLA-A2 HHD-DR1 humanized mice (C57BL/6JB2mtm1UnclAb−/−Tg(HLA-DRA, HLA-DRB1*0101)#GjhTg(HLA-A/H2-D/B2M)1 Bpe) were assigned randomly (based on mouse sex and age) to experimental groups, wherein each group was immunized with a specific vaccination peptide (vacc-pAg) combined to a common helper peptide (h-pAg UCP2; sequence: […]; SEQ ID NO: 39) (as outlined in Table 6 below).
The peptide formulation to be injected (emulsion) was prepared freshly on each day of injection and for each group. A mix for 10 animals was prepared using 2 mL luer lock syringes (4606701 V, B BRAUN) and luer lock female-female Combifix® Adapter (B. Braun, 5206634): 500 μL of peptide mixture in syringe 1 was emulsified with 500 μL of Montanide ISA 51 VG (Seppic) contained in syringe 2. The emulsification process was performed first by pushing the peptide mixture contained in syringe 1 into syringe 2 (containing Montanide) at very low speed. Transfer of the mixture from one syringe to another was then performed at very low speed during 6 cycles (one cycle corresponding to one passage from one syringe to another), and secondly at high speed, as fast as possible, for 1 minute. Each emulsion was prepared in excess to compensate for the dead volumes at injection.
The animals were immunized on day 0 (d0) with a prime injection, and on d14 with a boost injection. Each mouse was injected s.c. on the loose skin over the neck of the animals with 100 μL of an oil-based emulsion that contained: • 30 nmol of vacc-pAg and 30 or 100 μg of UCP2 helper peptide in 50 μL of a dedicated final solvent • Montanide ISA 51 VG (Seppic) added at 1:1 (v:v) ratio (50 μL per mouse).
Seven days after the boost injection (i.e. on d21), the animals were euthanized and the spleen was harvested. Splenocytes were prepared by mechanical disruption of the organ followed by 70 μm-filtering and Red blood cell lysis.
The cell suspensions were further used in an ELISPOT-IFN assay (Table 5). The cells were cultured in 200 μL of complete T cell medium. Experimental conditions (duplicates) were as follow: 2×10^5 total cells per well when cultured in presence of various pAg (10 μM) or medium-only; and 2×10^4 total cells when cultured in presence of the positive control PMA/lonomycin (PMA: Sigma P8139: 0.1 μM final; lonomycin: Sigma 10634: 1 μM final). The cultures were assessed for their capacity to secrete IFN (mouse IFN-ELISpotPLUS kit, Mabtech 3321-4APT-10), following the manufacturer's instructions (˜12-48h incubation time before performing the assay). The peptides used for restimulation are described in Table 7.
Spots were counted on a an iSpot Fluorospot Reader System (AID). Data plotting and statistical analysis were performed with the Prism-9 software (GraphPad Software Inc.).
The data were provided as a number of spots per 1·10^6 total T cells. The individual average values (obtained from the duplicates) were next used to plot the group average values. Statistical analysis for comparison (to the irrelevant peptide condition) were performed using unpaired non-parametric test (Mann Whitney) (**: p<0.01; *: p<0.05).

The target of experiment [2] is T1, HLA-A*0201 (Homo sapiens, UniProt P04439, D140Y/D185E/D98H/E176V/E277Q/G131W/G231S/I119V/I121R/I166T/I218V/L300P/L318F/N151K/N90K/P208A/P217A/Q86G/Q94H/R138H/R169H/T345S).
T1 construct: human tumoral cell T2 which expresses the HLA-A*0201 molecule; endogenous in cells; host or cells: T2 cells (human, TAP1/2 negative)
Description: Affinity of the peptide to T2 cell line (HLA-A*0201 binding, FACS with anti-HLA-A2 antibody). The conditions noted are these: T2 cells. The protocol:
T2 cells (5·10^4 cells per well) are incubated with decreasing concentrations of peptides from 100 μM to 0.1 μM (4 points: 100 μM, 10 μM, 1 μM, 0.1 μM) in serum-free medium (TexMacs) supplemented with 100 ng/μl of 2 Microglobulin at 37° C. for 16 hours.
The analysis is achieved by FACS (Macsquant analyzer 10 or a Macsquant analyzer 16-Miltenyi).

Consider ALIFGQLLL [TOP2A-B2], for which, in experiment [1], the “immunogenicity: T cell response in ELISPOT-IFNγ” value (“immunogenicity: T cell response” for short) is recorded as “induced significant T cell responses; also recorded: strongly immunogenic; also recorded: induced strong immune responses” and the “cross-reactivity of induced T cells with the corresponding human peptide in ELISPOT-IFNγ” value (“cross-reactivity of induced T cells” below) is “able to drive an effective immune response against the corresponding human peptide; also recorded: Cross-reactivity”. For the same sequence, the “Concentration of peptide that induces 20% of HLA-A2 expression” value in experiment [2] is 1.79 µM.

“SLPDRILDA (listed as Homo sapiens) [CDC20-H1, reference compound]”: the “cross-reactivity of induced T cells” value in experiment [1] is on record as “Cross-reactivity”. The “Concentration of peptide that induces 20% of HLA-A2 expression” value in experiment [2] is 4.57 µM.

Consider KIIGIILAV [CDH17-B1], for which, in experiment [1], the “immunogenicity: T cell response” value was “induced significant T cell responses; also recorded: strongly immunogenic; also recorded: induced strong immune responses” and the “cross-reactivity of induced T cells” value is recorded as “able to drive an effective immune response against the corresponding human peptide; also recorded: Cross-reactivity”.

Consider ALYSEILTV [ANKRD30A-B1], for which, in experiment [1], the “immunogenicity: T cell response” value is listed as “induced significant T cell responses; also recorded: strongly immunogenic; also recorded: induced strong immune responses” and the “cross-reactivity of induced T cells” value is recorded as “able to drive an effective immune response against the corresponding human peptide; also recorded: Cross-reactivity”. Also, the “Concentration of peptide that induces 20% of HLA-A2 expression” value in experiment [2] worked out at 0.05 µM.
